# US11731977B2, “SGC stimulators” (Cyclerion Therapeutics, Inc., priority 2016, dated 2023)
# Marks after values point to notes of the source that are not given here.
# What was measured:
# cGMP in rat CSF = assay: Rat CSF biomarker (cGMP) measurement (Example 7); format: in vivo
# Method: This experiment was to determine the effect of different doses of a compound of the invention on the cGMP response as well as the compound concentration in rat CSF and compound concentration in rat plasma. Protocol. Each rat was sampled one time or multiple times with 3 or more days in between each dosing. Day before the experiment. Fast rats overnight with ad libitum access to water. Day of the experiment. Compound and cyclic guanosine monophosphate (cGMP) in rat CSF was determined following oral dosing. Male Sprague-Dawley rats with an indwelling catheter placed in the cisterna magna were used. The rats were dosed with 0 mg/kg (n=15), 3 mg/kg (n=19) and 10 mg/kg (n=20) of a compound of the invention formulated as a suspension in 0.5% methylcellulose, 0.5% Tween80. PO doses were administered by oral gavage and delivered to the stomach using a syringe and gavage tube. Following oral dosage administration, the gavage tube was flushed with approximately 0.5 mL of water to ensure complete delivery of the full dose. Plasma and CSF samples were collected under isoflurane anesthesia as follows: samples of CSF were collected at 1 hour and 6 hours post-dosing and samples of blood were collected 1 h post-dosing. CSF samples were collected through the intracisternal catheter. Approximately 20 μL of CSF and discard (dead volume is 14-16 μL); then withdraw approximately 50 μL of CSF in eppendorf tubes containing 5 μL of glacial acetic acid. Snap freeze CSF by immersion in liquid nitrogen. Blood samples (0.25 mL) were collected through retro-orbital sampling. These samples were kept on ice until processed for plasma. Blood samples were centrifuged at 3200 rpm for 10 minutes at approximately 5° C. within 1 hour of collection. Plasma was directly transferred to a 96-well plate tube (0.125 mL). Plug caps were placed on the tubes and the tubes frozen at approximately −70° C. and stored until analysis. Plasma was collected and analyzed for the presence of a compound. Quantitation of Compounds and cGMP. The compound of the invention, cGMP and the internal standard were extracted from plasma and CSF by precipitation. Samples were analyzed using liquid chromatography (LC) with tandem mass spectrometric detection (MS/MS) using electrospray ionization. The standard curve range was from 1 to 1000 ng/mL. Results of the compounds described herein in this assay are illustrated in Table 7 below (3 and 10 mg/kg dose). Statistics were determined by planned comparison t-tests.
# cGMP in mouse brain = assay: Compound-induced cGMP in mouse brain (Example 9); format: in vivo; conditions: 30 min after dosing
# Method: Objective. To determine the effect of different doses of a compound of the invention in cGMP response and compound concentration in different areas of the mouse brain (cortex, hippocampus, cerebellum and striatum) and compound concentration in blood
# Protocol. Mice (n=7-8 per experimental condition) were dosed PO with vehicle (1% hydroxypropyl methyl cellulose, 0.2% Tween80, 0.5% methyl cellulose) or 0.3, 1, 3 or 10 mg/Kg of Compound I-1 prepared in vehicle. Thirty minutes after dosing, under isoflurane anesthesia, the mouse was decapitated and the brain was removed and placed into an ice-cold petri dish containing slushy dissection solution (saturated with 95% O2·5% CO2). Using an ice-cold spatula, the brain was transferred to mouse brain matrix with coronal spacing for slicing at 1 mm intervals, as shown in FIG. 5 (not to scale, just a scheme).
# The sliced brain was transferred back into petri dish containing slushy dissection solution with IBMX 0.5 mM (saturated with 95% O2/5% CO2). The dorsal striatum is dissected first, followed by the hippocampus second, followed by the medial prefrontal cortex third, and lastly, the cerebellum fourth. After each region is dissected the dissected tissue was immediately placed into an eppendorf that was placed on dry ice for the previous 30 minutes. Small pieces of tissue froze very fast, within 10 seconds approximately. After all regions were placed in an eppendorf, the eppendorfs were then snap frozen by immersion into liquid nitrogen. The whole blood sample was collected from the trunk area using mitra tips. Tissue samples were stored in the −80° C. and mitra tips at room temperature. cGMP and compound levels in brain and blood were determined by LC/MS; protein quantification of brain samples was determined using BCA protein assay kit.
# rats = assay: Inflammatory pain: carrageenan, paw pressure test (Example 13); format: in vivo, rat; conditions: Compound I-1 p.o. 10 mg/kg, 120 minutes after treatment
# [1] = system: Sprague-Dawley rats, streptozotocin model; assay: Rat model of diabetic neuropathy (STZ model), paw pressure test (Example 14); format: in vivo; conditions: Compound I-1 10 mg/kg p.o., mean±s.e.m.
structure (smiles),measurement,setting,value
"Fc1ccccc1Cc1nc(-c2nc(C(F)(F)F)n[nH]2)cn2ccnc12 [Compound I-1, 8-(2-fluorobenzyl)-6-(3-(trifluoromethyl)-1H-1,2,4-triazol-5-yl)imidazo[1,2-a]pyrazine]",CSF Conc. (nM @ 1 h),cGMP in rat CSF; 3 mg/kg PO,7.2* nM
same,CSF Conc. (nM @ 6 h),cGMP in rat CSF; 3 mg/kg PO,6.7 nM
same,CSF Conc. (nM @ 1 h),cGMP in rat CSF; 10 mg/kg PO,14.8** nM
same,CSF Conc. (nM @ 6 h),cGMP in rat CSF; 10 mg/kg PO,13.8* nM
same,CEREBELLUM nM cGMP/μg protein,cGMP in mouse brain; 0.3 MPK PO,0.3199 nM cGMP/μg protein
same,CORTEX nM cGMP/μg protein,cGMP in mouse brain; 0.3 MPK PO,0.07761 nM cGMP/μg protein
same,Hippocampus nM cGMP/μg protein,cGMP in mouse brain; 0.3 MPK PO,0.04255 nM cGMP/μg protein
same,STRIATUM nM cGMP/μg protein,cGMP in mouse brain; 0.3 MPK PO,0.02261 nM cGMP/μg protein
same,CEREBELLUM nM cGMP/μg protein,cGMP in mouse brain; 1 MPK PO,0.4577 nM cGMP/μg protein
same,CORTEX nM cGMP/μg protein,cGMP in mouse brain; 1 MPK PO,0.08064 nM cGMP/μg protein
same,Hippocampus nM cGMP/μg protein,cGMP in mouse brain; 1 MPK PO,0.04302 nM cGMP/μg protein
same,STRIATUM nM cGMP/μg protein,cGMP in mouse brain; 1 MPK PO,0.03124 nM cGMP/μg protein
same,CEREBELLUM nM cGMP/μg protein,cGMP in mouse brain; 3 MPK PO,0.7524 nM cGMP/μg protein
same,CORTEX nM cGMP/μg protein,cGMP in mouse brain; 3 MPK PO,0.1081 nM cGMP/μg protein
same,Hippocampus nM cGMP/μg protein,cGMP in mouse brain; 3 MPK PO,0.0519 nM cGMP/μg protein
same,STRIATUM nM cGMP/μg protein,cGMP in mouse brain; 3 MPK PO,0.03719 nM cGMP/μg protein
same,CEREBELLUM nM cGMP/μg protein,cGMP in mouse brain; 10 MPK PO,1.796**** nM cGMP/μg protein
same,CORTEX nM cGMP/μg protein,cGMP in mouse brain; 10 MPK PO,0.1734* nM cGMP/μg protein
same,Hippocampus nM cGMP/μg protein,cGMP in mouse brain; 10 MPK PO,0.1171** nM cGMP/μg protein
same,STRIATUM nM cGMP/μg protein,cGMP in mouse brain; 10 MPK PO,0.04612* nM cGMP/μg protein
same,% of activity vs. vehicle,rats,38%
same,nociceptive threshold (paw pressure test),"[1]; D18, 60 min post administration, gabapentin 100 mg/kg p.o., morphine 4 mg/kg s.c.",328 ± 32.6 g
same,nociceptive threshold (paw pressure test),"[1]; D18, 120 min post administration, gabapentin 100 mg/kg p.o., morphine 4 mg/kg s.c.",387 ± 30.2 g
same,nociceptive threshold (paw pressure test),"[1]; D18, 180 min post administration",319 ± 23.1 g
same,nociceptive threshold (paw pressure test),"[1]; D21, 120 min after dosing, gabapentin 100 mg/kg p.o., morphine 4 mg/kg s.c.",346 ± 20.5 g
same,nociceptive threshold (paw pressure test),"[1]; D21, baseline prior to administration (Cmin, daily dosing from D18)",259 ± 25.6 g
